According to US9266904B2, “6-bridged heteroaryldihydropyrimidines for the treatment and prophylaxis of hepatitis B virus infection” (priority 2013, dated 2016):
pEC50: −log10 of the molar value. Converted amounts (≈) assume the structure as drawn. Where two headings read alike, the source gives them in different places.

Legend:
[1] = test system: HBV replication in HepG2.2.15 cells; assay: Anti-HBV activity in vitro in HepG2.2.15 cells (extracellular HBV DNA by qPCR); assay type: cell-based; settings: Hepatitis B virus, HepG2.2.15, Anti-HBV activity in HepG2.2.15 cells; read-out: EC50
How it was run: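 Constitutively HBV-producing HepG2.2.15 cells were seeded overnight at 37 °C, then treated with half-log serial dilutions of compound (0.5% DMSO final) for five days. Supernatant HBV DNA was extracted and quantified by qPCR; EC50 is the concentration inhibiting HBV replication by 50%.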

[2] = Human microsomal clearance assay; assay type: in vitro ADME
Method: Microsomes were preincubated with test compound for 10 minutes at 37° C. in 100 mM phosphate buffer with pH 7.4. The reactions were initiated by adding NADPH regenerating system to give a final incubation volume of 400 μL. The incubations finally contained 1 μM test compound, 0.5 mg/mL liver microsomal protein, 3.0 mM glucose 6-phosphate, 1.0 mM NADP, 3.0 mM MgCl2 and 0.05 mg/mL glucose 6-phosphate dehydrogenase in 100 mM phosphate buffer with pH 7.4. After incubation times of 0, 3, 6, 9, 15 and 30 minutes, 50 μL, incubation was transferred to the quench solution containing the internal standard which was 2 μM tolbutamide. After precipitation and centrifugation, test compound concentrations in the samples were determined by LC-MS/MS. Controls of no NADPH regenerating system at zero and 30 minutes were also prepared and analyzed.

[3] = Lyophilisation solubility assay (Lysa); assay type: physicochemical; settings: thermodynamic from solid
Method: The aqueous solubility is an important physico-chemical property that plays a significant role in various physical and biological processes. It is desirable to have good solubility which enables good permeability and gastric and intestinal absorption, linear dose proportionality, less PK variability, and easy formulation for PD/PK studies. […] Lyophilisation solubility assay (Lysa) is a well adopted high throughput assay to measure compound solubility in industry.
Samples are prepared in duplicate from 10 mM DMSO stock solutions. After evaporation of DMSO with a centrifugal vacuum evaporator, the residue is solved in 0.05 M phosphate buffer (pH 6.5), stirred for one hour and then shook for two hours. After one night, the solution is filtered using a microtiter filter plate and then the filtrate and its 1/10 dilution are then analyzed by direct UV measurement or by HPLC-UV. In addition a four-point calibration curve is prepared from the 10 mM stock solutions and used for the solubility determination of the compounds. The results are in μg/ml. In case the percentage of sample measured in solution after evaporation divided by the calculated maximum of sample amount is bigger than 80% the solubility is reported as bigger than this value.

Structure (SMILES) | pEC50 [1] | CLh ([2]; human, 1 μM, pH 7.4) [mL/min/kg] | solubility thermodynamic ([3]; pH 6.5, aqueous buffer) [µg/mL] | CLh ([2]; human microsomal clearance) [mL/min/kg] | solubility thermodynamic ([3]; aqueous buffer, 0.05 M phosphate buffer (pH 6.5), reported as bigger than the value if more than 80% of the sample is in solution, read-out: Lysa) [µg/mL]
COC(=O)C1=C(CN2C3COCC2C(C(=O)O)C3)NC(c2nccs2)=N[C@H]1c1ccc(F)cc1Cl (stereo partly drawn) [Example 6, 8-[(R)-6-(2-Chloro-4-fluoro-phenyl)-5-methoxycarbonyl-2-thiazol-2-yl-3,6-dihydro-pyrimidin-4-ylmethyl]-3-oxa-8-aza-bicyclo[3.2.1]octane-6-carboxylic acid] | 7.49 | 0.5 | > 665 |  | 
CCOC(=O)C1=C(CN2C3COCC2CC(CC(=O)O)C3)NC(c2nccs2)=N[C@H]1c1ccc(F)c(F)c1 (stereo partly drawn) [Example 29, (S)-6-(7-Carboxymethyl-3-oxa-9-aza-bicyclo[3.3.1]non-9-ylmethyl)-4-(3,4-difluoro-phenyl)-2-thiazol-2-yl-1,4-dihydro-pyrimidine-5-carboxylic acid ethyl ester] | 7.46 | 1.7 | > 600 |  | 
COC(=O)C1=C(CN2CC3(F)CC2(C(=O)O)C3)NC(c2nccs2)=N[C@H]1c1ccc(F)cc1Cl [Example 40, 2-[(R)-6-(2-Chloro-4-fluoro-phenyl)-5-methoxycarbonyl-2-thiazol-2-yl-3,6-dihydro-pyrimidin-4-ylmethyl]-4-fluoro-2-aza-bicyclo[2.1.1]hexane-1-carboxylic acid] | 7.49 |  |  | 1.4 | > 634
COC(=O)C1=C(CN2[C@@H]3COC[C@H]2CC(OCC(=O)O)C3)NC(c2nccs2)=N[C@H]1c1ccc(F)cc1Cl (stereo partly drawn) [Example 46, 2-[[(1R,5S)-9-[[(4R)-4-(2-chloro-4-fluoro-phenyl)-5-methoxycarbonyl-2-thiazol-2-yl-1,4-dihydropyrimidin-6-yl]methyl]-3-oxa-9-azabicyclo[3.3.1]nonan-7-yl]oxy]acetic acid] | 7.06 | 4.0 | > 685 |  | 
COC(=O)C1=C(CN2C3COCC2CN(C(=O)CO)C3)NC(c2nccs2)=N[C@H]1c1ccc(F)cc1Br [Example 53, Methyl (4R)-4-(2-bromo-4-fluoro-phenyl)-6-[[7-(2-hydroxyacetyl)-3-oxa-7,9-diazabicyclo[3.3.1]nonan-9-yl]methyl]-2-thiazol-2-yl-1,4-dihydropyrimidine-5-carboxylate] | 7.77 | 7.0 | 163 (≈ 274 µM) |  | 
COC(=O)C1=C(CN2[C@@H]3COC[C@H]2C[C@@H](CC(=O)O)C3)NC(c2nccs2)=N[C@H]1c1cccc(F)c1Cl [Example 55, 2-[(1R,5)-9-[[(4R)-4-(2-chloro-3-fluoro-phenyl)-5-methoxycarbonyl-2-thiazol-2-yl-1,4-dihydropyrimidin-6-yl]methyl]-3-oxa-9-azabicyclo[3.3.1]nonan-7-yl]acetic acid] | 7.65 | 0 | 505 (≈ 920 µM) |  | 
CCOC(=O)C1=C(CN2[C@@H]3COC[C@H]2C[C@H](CC(=O)O)C3)NC(c2nccs2)=N[C@H]1c1cccc(F)c1F [Example 75, Exo-2-[(1S,5R)-9-[[(4R)-4-(2,3-difluorophenyl)-5-ethoxycarbonyl-2-thiazol-2-yl-1,4-dihydropyrimidin-6-yl]methyl]-3-oxa-9-azabicyclo[3.3.1]nonan-7-yl]acetic acid] | 7.54 | 1.0 | > 656 |  | 
COC(=O)C1=C(CN2[C@@H]3COC[C@H]2C[C@H](CC(=O)O)C3)NC(c2nccs2)=N[C@H]1c1ccccc1Br [Example 76, Exo-2-[(1S,5R)-9-[[(4R)-4-(2-bromophenyl)-5-methoxycarbonyl-2-thiazol-2-yl-1,4-dihydropyrimidin-6-yl]methyl]-3-oxa-9-azabicyclo[3.3.1]nonan-7-yl]acetic acid] | 7.51 | 3.3 | > 706 |  | 
